# Source: PubChem BioAssay (NCI)
# Values joined by “and” are separate entries in the source; they are usually repeats but may differ in a detail not shown here. Identical values can stand only once.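 Exposure lasted 48 hours, with cells grown in 96-well plates and compounds tested at five concentrations. GI50 marks 50% less growth. TGI: total growth inhibition.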
# Legend:
# Experiment in all cases: inhibition of tumour cell growth, NCI panel, 48 h
# ACHN renal = tested on: ACHN renal
# SK-MEL-28 melanoma = tested on: SK-MEL-28 melanoma
# EKVX NSCLC = tested on: EKVX NSCLC
# SN12C renal = tested on: SN12C renal
# SNB-75 CNS = tested on: SNB-75 CNS
# SK-MEL-2 melanoma = tested on: SK-MEL-2 melanoma
# HS 578T breast = tested on: HS 578T breast
# OVCAR-8 ovarian = tested on: OVCAR-8 ovarian
# HOP-62 NSCLC = tested on: HOP-62 NSCLC
# SF-539 CNS = tested on: SF-539 CNS
SMILES,GI50 (ACHN renal),TGI (ACHN renal),GI50 (SK-MEL-28 melanoma),TGI (SK-MEL-28 melanoma),GI50 (EKVX NSCLC),TGI (EKVX NSCLC),GI50 (SN12C renal),TGI (SN12C renal),GI50 (SNB-75 CNS),TGI (SNB-75 CNS),GI50 (SK-MEL-2 melanoma),TGI (SK-MEL-2 melanoma),GI50 (HS 578T breast),TGI (HS 578T breast),GI50 (OVCAR-8 ovarian),TGI (OVCAR-8 ovarian) [µM],GI50 (HOP-62 NSCLC),TGI (HOP-62 NSCLC),GI50 (SF-539 CNS),TGI (SF-539 CNS) [µM]
CCCCCCN(CCCCCC)CC(O)c1cccc2ccc(Cl)cc12 (configuration not stated),5.89 µM,18.8 µM,12 µM,24.3 µM,10.5 µM,25.5 µM,10.7 µM,23.6 µM,7.43 µM,20.6 µM,10.2 µM,24.6 µM,8.36 µM,26.4 µM,15.7 µM,32.7,3.71 µM,14.5 µM,1.58 µM,4.95
CC(C)(C)NCCC(O)c1cc(C(F)(F)F)nc2c(C(F)(F)F)cccc12 (configuration not stated),,21.1 µM,,30.7 µM,,27.2 µM,,15.5 µM,,26.5 µM,,24.6 µM,,34.4 µM,,17.8,,14.5 µM,,31
COc1cc(OC)cc(N2CCN(C(=O)Nc3nc4cc(F)ccc4nc3OC)CC2)c1,0.0129 µM and 0.0608 µM and 0.0408 µM,25.6 µM and > 100 µM,10.9 µM and 6.92 µM,74.9 µM and 37 µM,0.0543 µM and 0.345 µM and 0.0636 µM,> 87.1 µM and 66.6 µM,0.067 µM and 0.0615 µM and 0.0576 µM,51.1 µM and 24.5 µM,0.0197 µM and 0.0243 µM,56.4 µM and 57.2 µM,0.277 µM and 0.0666 µM and 0.0306 µM,29.1 µM and 10.8 µM,< 0.01 µM and 0.027 µM and 0.0388 µM,33.2 µM and > 100 µM,0.0437 µM and 0.0499 µM and 0.056 µM,> 100,0.0346 µM and 0.0573 µM and 0.051 µM,58.7 µM and 25.2 µM,0.0195 µM and 0.0228 µM and 0.0136 µM,
O=[N+]([O-])O.[NH-]C1CCCCC1[NH-].[NH-]C1CCCCC1[NH-].[NH-]C1CCCCC1[NH-].[OH-].[OH-].[OH-].[Pt+4].[Pt+4].[Pt+4] (configuration not stated),0.164 µM,,1.43 µM,43.2 µM,30.1 µM,> 100 µM,0.126 µM,26.7 µM,1.49 µM,32.6 µM,2.05 µM,30.5 µM,12.1 µM,> 61.9 µM,0.382 µM,> 74.1,2.23 µM,> 57.8 µM,1.31 µM,> 68.8
CCOC(=O)Cc1csc(NC(=O)C(OC(=O)c2ccc(N)cc2)c2ccccc2)n1 (configuration not stated),44.9 µM,> 100 µM,30.9 µM,98 µM,> 100 µM,> 100 µM,46.6 µM,> 100 µM,45.9 µM,> 100 µM,40.2 µM,> 100 µM,80.9 µM,> 100 µM,73.6 µM,> 100,52 µM,> 100 µM,30.6 µM,87.4
CCNC(=O)Oc1ccc(/C(=C(\C)c2ccc(Cl)cc2)c2ccc(OCCN3CCCCC3)cc2)cc1,4.78 µM,16.7 µM,1.83 µM,3.73 µM,6.14 µM,21.9 µM,5.95 µM,19.2 µM,2.67 µM,18.6 µM,5.49 µM,19.2 µM,3.62 µM,17.2 µM,9.31 µM,26,4.12 µM,15.4 µM,1.81 µM,3.59
CC(=O)N[C@@H]1CCC[C@H](C(=O)Nc2cc(-c3cnn4c3CC(C)(C)C4)c(Cl)cn2)C1,< 0.015 µM,> 100 µM,< 0.0133 µM,0.342 µM,0.0197 µM,,0.0103 µM,> 100 µM,< 0.01 µM,0.029 µM,0.0121 µM,0.041 µM,< 0.01 µM,20.1 µM,< 0.012 µM,> 100,< 0.0113 µM,> 100 µM,< 0.01 µM,0.0187
OCCCCC#Cc1ccccc1C#Cc1cnccn1,38.8 µM,> 100 µM,43.4 µM,> 100 µM,36.5 µM,95.3 µM,47.3 µM,> 100 µM,17.3 µM,53.7 µM,70.7 µM,> 100 µM,24.9 µM,85.1 µM,33 µM,> 100,41 µM,> 100 µM,53.8 µM,> 100
COc1cc(C(=O)N/N=C/c2cccc([N+](=O)[O-])c2)cc(OC)c1OC,26.7 µM,> 100 µM,39.3 µM,> 100 µM,18.7 µM,> 100 µM,78.9 µM,> 100 µM,6.92 µM,56.1 µM,4.16 µM,> 100 µM,2.02 µM,8.6 µM,23.6 µM,> 100,18.4 µM,> 100 µM,3.28 µM,16.9
Cn1c(COC(=O)NCCN2CCOCC2)nc2c(N3CCOCC3)nc(-c3ccccc3)nc21,0.936 µM,2.23 µM,1.51 µM,2.94 µM,1.48 µM,3.36 µM,1.03 µM,2.6 µM,1.11 µM,2.67 µM,1.65 µM,3.2 µM,1.49 µM,5.38 µM,1.3 µM,3.4,1.29 µM,3.3 µM,1.35 µM,2.68
